ChEMBL document CHEMBL2010687 (Bioorg Med Chem Lett, 2012)
Values belong to the compound of their own block, whether it stands above or below them.

Key:
[1] = target: T1, Growth hormone secretagogue receptor type 1 (Homo sapiens, UniProt Q92847); test: Antagonist activity at human GHSR1a receptor assessed as intracellular Ca2+ concentration by aequorin luminescent assay; type: functional, cell-based
[2] = Metabolic stability in human liver S9 fraction assessed as compound remaining after 1 hr; type: ADME, subcellular; conditions: read-out: Stability
[3] = Metabolic stability in rat liver S9 fraction assessed as compound remaining after 1 hr; type: ADME, subcellular; conditions: read-out: Stability
[4] = Clearance in Sprague-Dawley rat at 2 mg/kg, po; type: ADME, organism-based; parameters: dose 2 mg/kg, route oral; conditions: in vivo
[5] = AUC in Sprague-Dawley rat at 2 mg/kg, po; type: ADME, organism-based; parameters: dose 2 mg/kg, route oral; conditions: plasma
[6] = target: Growth hormone secretagogue receptor type 1 (Mus musculus, UniProt Q99P50); test: Antagonist activity at mouse GHSR1 receptor assessed as intracellular Ca2+ concentration by aequorin luminescent assay; type: functional, cell-based
[7] = Oral bioavailability in Sprague-Dawley rat at 2 mg/kg; type: ADME, organism-based; conditions: in vivo
[8] = target: T1, Growth hormone secretagogue receptor type 1; test: Displacement of [125I]Ghrelin from human GHSR1a receptor

T1 sequence (Q92847 whole entry): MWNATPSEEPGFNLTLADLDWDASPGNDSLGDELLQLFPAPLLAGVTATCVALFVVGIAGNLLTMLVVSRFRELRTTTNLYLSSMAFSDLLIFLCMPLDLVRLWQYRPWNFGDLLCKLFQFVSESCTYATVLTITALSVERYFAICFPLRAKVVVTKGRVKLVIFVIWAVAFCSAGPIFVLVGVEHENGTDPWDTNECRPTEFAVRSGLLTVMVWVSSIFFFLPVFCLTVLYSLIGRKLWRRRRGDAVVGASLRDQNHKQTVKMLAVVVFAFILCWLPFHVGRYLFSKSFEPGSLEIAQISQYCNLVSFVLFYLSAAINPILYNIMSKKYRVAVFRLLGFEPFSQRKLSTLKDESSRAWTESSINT
Chain of Growth hormone secretagogue receptor type 1 (Mus musculus, UniProt Q99P50) (Q99P50 whole entry): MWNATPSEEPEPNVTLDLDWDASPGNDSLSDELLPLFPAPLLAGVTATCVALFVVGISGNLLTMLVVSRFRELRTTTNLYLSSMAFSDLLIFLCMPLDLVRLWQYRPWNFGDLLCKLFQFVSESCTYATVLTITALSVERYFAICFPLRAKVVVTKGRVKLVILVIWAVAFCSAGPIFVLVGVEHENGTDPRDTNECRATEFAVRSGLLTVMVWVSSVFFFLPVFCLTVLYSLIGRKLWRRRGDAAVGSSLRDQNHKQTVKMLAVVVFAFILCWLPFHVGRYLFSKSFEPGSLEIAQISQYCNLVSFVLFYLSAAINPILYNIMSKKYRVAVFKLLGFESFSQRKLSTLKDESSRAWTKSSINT

SMILES: CC(C)[C@@H](C(=O)NC1CCN(Cc2ccccc2)CC1)N1CC(=O)Nc2ccc(Oc3ccccc3)cc2C1=O
- IC50 [1]: 196 nM

SMILES: CC(C)[C@H](C(=O)N1CCC(NCC2CC2)CC1)N1CC(=O)Nc2ccc(Oc3ccccc3)cc2C1=O
- remaining at 1 h [3]: 71%
- IC50 [1]: 50 nM
- remaining at 1 h [2]: 86%

SMILES: O=C1CN(CC(=O)NC2CCN(Cc3ccccc3)CC2)C(=O)c2cc(Oc3ccccc3)ccc2N1
- IC50 [1]: 314 nM

SMILES: COc1ccccc1Oc1ccc2c(c1)C(=O)N([C@@H](C(=O)NC1CCN(Cc3ccccc3)CC1)C(C)C)CC(=O)N2
- remaining at 1 h [3]: 19%
- IC50 [1]: 26 nM
- remaining at 1 h [2]: 26%

SMILES: COc1ccc(Oc2ccc3c(c2)C(=O)N([C@@H](C(=O)NC2CCN(Cc4ccccc4)CC2)C(C)C)CC(=O)N3)cc1
- IC50 [1]: 79 nM

SMILES: CC(C)[C@H](C(=O)NC1CCN(C(=O)c2ccccc2)CC1)N1CC(=O)Nc2ccc(Oc3ccccc3)cc2C1=O
- IC50 [1]: > 10000 nM

SMILES: CC(C)[C@H](C(=O)NC1CCN(Cc2ccccc2)CC1)N1CC(=O)Nc2ccc(Oc3ccc(F)cc3)cc2C1=O
- IC50 [1]: 11 nM

SMILES: CC(C)[C@H](C[C@H]1CC[C@@H](NCC2CC2)CC1)N1CC(=O)Nc2ccc(Oc3ccc(F)cc3F)cc2C1=O
- remaining at 1 h [3]: 27%
- IC50 [1]: 20 nM
- remaining at 1 h [2]: 68%

SMILES: CC(C)[C@H](C(=O)NC1CCN(Cc2ccccc2)CC1)N1CC(=O)Nc2ccc(Oc3cccc(Cl)c3)cc2C1=O
- IC50 [1]: 171 nM

SMILES: CC(C)[C@H](C(=O)NC1CCN(Cc2ccccc2)CC1)N1CC(=O)Nc2ccc(Oc3ccc(Cl)cc3)cc2C1=O
- IC50 [1]: 28 nM

SMILES: CC(C)[C@H](C(=O)N1CCC(NC(C)(C)c2ccccc2)CC1)N1CC(=O)Nc2ccc(Oc3ccccc3)cc2C1=O
- remaining at 1 h [3]: 48%
- IC50 [1]: 16.5 nM
- remaining at 1 h [2]: 19%

SMILES: CC(C)[C@H](C(=O)NC1CCC(Cc2ccccc2)CC1)N1CC(=O)Nc2ccc(Oc3ccccc3)cc2C1=O (stereo not given in full)
- remaining at 1 h [3]: 95%
- IC50 [1]: > 10000 nM
- remaining at 1 h [2]: 23%

SMILES: CC(C)[C@H](C(=O)NC1CCNCC1)N1CC(=O)Nc2ccc(Oc3ccccc3)cc2C1=O
- IC50 [1]: > 10000 nM

SMILES: O=C1CN([C@@H](C(=O)NC2CCN(Cc3ccccc3)CC2)C2CC2)C(=O)c2cc(Oc3ccccc3)ccc2N1
- IC50 [1]: 12 nM

SMILES: COc1cccc(Oc2ccc3c(c2)C(=O)N([C@@H](C(=O)NC2CCN(Cc4ccccc4)CC2)C(C)C)CC(=O)N3)c1
- remaining at 1 h [3]: 10%
- IC50 [1]: 143 nM
- remaining at 1 h [2]: 22%

SMILES: CC(C)[C@H](C(=O)N1CCC(NCCC2CCOCC2)CC1)N1CC(=O)Nc2ccc(Oc3ccccc3)cc2C1=O
- IC50 [1]: 313 nM

Compounds with a lower IC50 [1], results first:

- remaining at 1 h [3]: 72%
- IC50 [1]: 8 nM
- remaining at 1 h [2]: 62%
SMILES: CC(C)[C@H](C(=O)N1CCC(NCc2ccccc2)CC1)N1CC(=O)Nc2ccc(Oc3ccccc3)cc2C1=O

- CL/F [4]: 143 mL/min/kg
- remaining at 1 h [3]: 19%
- IC50 [1]: 8 nM
- AUC [5]: 132 ng·h/mL
- IC50 [6]: 7 nM
- bioavailability [7]: 6%
- remaining at 1 h [2]: 30%
- Ki [8]: 4.4 nM
SMILES: CC(C)[C@H](C(=O)NC1CCN(Cc2ccccc2)CC1)N1CC(=O)Nc2ccc(Oc3ccccc3)cc2C1=O

- IC50 [1]: 7 nM
SMILES: Cc1ccc(Oc2ccc3c(c2)C(=O)N([C@@H](C(=O)NC2CCN(Cc4ccccc4)CC2)C(C)C)CC(=O)N3)cc1

- IC50 [1]: 6 nM
SMILES: CC(C)[C@H](C[C@H]1CC[C@@H](NCc2ccccc2)CC1)N1CC(=O)Nc2ccc(Oc3ccccc3)cc2C1=O

- IC50 [1]: 4.1 nM
- remaining at 1 h [2]: 76%
SMILES: CC(C)[C@H](C(=O)N1CCC(NCCC2CCCCC2)CC1)N1CC(=O)Nc2ccc(Oc3ccccc3)cc2C1=O

- remaining at 1 h [3]: 3%
- IC50 [1]: 3 nM
- remaining at 1 h [2]: 5%
SMILES: Cc1ccccc1Oc1ccc2c(c1)C(=O)N([C@@H](C(=O)NC1CCN(Cc3ccccc3)CC1)C(C)C)CC(=O)N2

- remaining at 1 h [3]: 28%
- IC50 [1]: 2.5 nM
- remaining at 1 h [2]: 30%
SMILES: CC(C)[C@H](C(=O)N1CCC(N[C@H](C)C2CCCCC2)CC1)N1CC(=O)Nc2ccc(Oc3ccccc3)cc2C1=O

- remaining at 1 h [3]: 46%
- IC50 [1]: 2.5 nM
- remaining at 1 h [2]: 27%
SMILES: CC(C)[C@H](C(=O)N1CCC(N[C@H](C)c2ccccc2)CC1)N1CC(=O)Nc2ccc(Oc3ccccc3)cc2C1=O

- CL/F [4]: 10 mL/min/kg
- remaining at 1 h [3]: 97%
- IC50 [1]: 2 nM
- AUC [5]: 618 ng·h/mL
- bioavailability [7]: 39%
- remaining at 1 h [2]: 92%
SMILES: CC(C)[C@H](C[C@H]1CC[C@@H](NCC2CC2)CC1)N1CCCc2ccc(Oc3ccc(F)cc3F)cc2C1=O

- IC50 [1]: 1 nM
SMILES: Cc1cccc(C)c1Oc1ccc2c(c1)C(=O)N([C@@H](C(=O)NC1CCN(Cc3ccccc3)CC1)C(C)C)CC(=O)N2

- remaining at 1 h [3]: 65%
- IC50 [1]: 0.3 nM
- remaining at 1 h [2]: 70%
SMILES: CC(C)[C@H](C(=O)N1CCC(NCc2ccccc2)CC1)N1CC(=O)Nc2ccc(Oc3ccc(F)cc3F)cc2C1=O

- remaining at 1 h [3]: 3%
- IC50 [1]: 0.2 nM
- remaining at 1 h [2]: 5%
SMILES: Cc1cc(F)ccc1Oc1ccc2c(c1)C(=O)N([C@@H](C(=O)NC1CCN(Cc3ccccc3)CC1)C(C)C)CC(=O)N2
